Source: ChEMBL document CHEMBL1614631, “Comparative evaluation of oral systemic exposure of 56 xenobiotics in rat, dog, monkey and human” (Xenobiotica, 2005)

Tests used:
[1] = Dose normalised AUC in dog after po administration; conditions: in vivo
[2] = Dose normalised AUC in human after po administration; conditions: in vivo
[3] = Dose normalised AUC in monkey after po administration; conditions: macaca, in vivo
[4] = Dose normalised AUC in rat after po administration; conditions: in vivo

SMILES	DNAUC [1] [kg·min/L]	DNAUC [2] [kg·min/L]	DNAUC [3] [kg·min/L]	DNAUC [4] [kg·min/L]
O=C(c1ccccc1)c1ccc2n1CCC2C(=O)O (centres undefined) [KETOROLAC]	1352.94	1256.47	1912.26	285
CCN(CC)CC(=O)Nc1c(C)cccc1C [LIDOCAINE]	8.38	38.04	3.79	1.64
N[C@@H]1[C@H]2CN(c3nc4c(cc3F)c(=O)c(C(=O)O)cn4-c3ccc(F)cc3F)C[C@@H]12 [TROVAFLOXACIN]	44.25	540	120.6	51
COCCc1ccc(OCC(O)CNC(C)C)cc1 (centres undefined) [METOPROLOL]	15.8	25.33	8.33	58
C#C[C@]1(O)CC[C@H]2[C@@H]3CCc4cc(O)ccc4[C@H]3CC[C@@]21C [ETHINYL ESTRADIOL]	4.5	75.45	0.68	0.46
CN(C)CCCC1(c2ccc(F)cc2)OCc2cc(C#N)ccc21 (centres undefined) [CITALOPRAM]	8.75	200	9.85	5.88
CC1COc2c(N3CCN(C)CC3)c(F)cc3c(=O)c(C(=O)O)cn1c23 (centres undefined) [OFLOXACIN]	407.7	297.93	218.1	32.85
COC(=O)C1=C(C)NC(C)=C(C(=O)OCC(C)C)C1c1ccccc1[N+](=O)[O-] (centres undefined) [NISOLDIPINE]	2.64	1.2	0.84	0.49
CC(C(=O)O)c1ccc(C(=O)c2cccs2)cc1 (centres undefined) [SUPROFEN]	1108	619.76	355	320
COc1c(N2C[C@@H]3CCCN[C@@H]3C2)c(F)cc2c(=O)c(C(=O)O)cn(C3CC3)c12 [MOXIFLOXACIN]	245.95	372.73	45.09	18.35
CC(C)(C)S(=O)(=O)C[C@@H](Cc1ccccc1)C(=O)N[C@@H](Cc1cnc[nH]1)C(=O)N[C@@H](CC1CCCCC1)[C@@H](O)[C@@H](O)C1CC1 [REMIKIREN]	0.63	0.2	0.14	0.25
CC(C)NCC(O)COc1cccc2ccccc12 (centres undefined) [PROPRANOLOL]	8.32	17.33	1.32	37.8
CC[C@H]1OC(=O)[C@H](C)[C@@H](O[C@H]2C[C@@](C)(OC)[C@@H](O)[C@H](C)O2)[C@H](C)[C@@H](O[C@@H]2O[C@H](C)C[C@H](N(C)C)[C@H]2O)[C@](C)(O)C[C@@H](C)CN(C)[C@H](C)[C@@H](O)[C@]1(C)O [AZITHROMYCIN]	140.4	33.15	17.52	11.42
O=P(O)(O)C(Sc1ccc(Cl)cc1)P(=O)(O)O [TILUDRONIC ACID]	129.6	286.32	171.6	37.2
COc1ccc(C(C)C)cc1CN[C@H]1C2CCN(CC2)[C@H]1C(c1ccccc1)c1ccccc1 [EZLOPITANT]	10.82	125	0.6	2.36
CC(=O)[C@H]1CC[C@H]2[C@@H]3CC[C@H]4C[C@](C)(O)CC[C@]4(C)[C@H]3CC[C@]12C [GANAXOLONE]	77.25	5.65	1.39	0.76
O=C1CN=C(c2ccccc2Cl)c2cc([N+](=O)[O-])ccc2N1 [CLONAZEPAM]	24	590	36.8	3.47
O=C(O)CCc1nc(-c2ccccc2)c(-c2ccccc2)o1 [OXAPROZIN]	3.2	9.07	2.85	0.04
CC(C)N(CCC(C(N)=O)(c1ccccc1)c1ccccn1)C(C)C (centres undefined) [DISOPYRAMIDE]	101.6	550.48	2.2	6.07
O=C(O)c1cn(C2CC2)c2cc(N3CCNCC3)c(F)cc2c1=O [CIPROFLOXACIN]	32.75	77.03	85.2	9.36
Cn1cc(/C=C2/C(=O)N3C(C(=O)O)=CS[C@H]23)nn1	3.33	5	0.45	0.29

SMILES	DNAUC [1] [kg·min/L]	DNAUC [2] [kg·min/L]	DNAUC [3] [kg·min/L]	DNAUC [4] [kg·min/L]
CCn1cc(C(=O)O)c(=O)c2cc(F)c(N3CCN(C)CC3)cc21 [PEFLOXACIN]	120	505.26	259.2	67.2
NS(=O)(=O)Cc1noc2ccccc12 [ZONISAMIDE]	1458	3030	2097	663
COc1ccc(C(CN(C)C)C2(O)CCCCC2)cc1 (centres undefined) [VENLAFAXINE]	48	1	1.8	1.97
Cc1cnc(NC(=O)C2=C(O)c3ccccc3S(=O)(=O)N2C)s1 [MELOXICAM]	6870	6655.81	2856	4998
CC1=NC(=O)C(CCN(C(C)C)C(C)C)(c2ccccc2)C2CCCCN12 (centres undefined) [ACTISOMIDE]	71.7	51.51	26.46	14.49
CC[C@H]1OC(=O)[C@H](C)[C@@H](O[C@H]2C[C@@](C)(OC)[C@@H](O)[C@H](C)O2)[C@H](C)[C@@H](O[C@@H]2O[C@H](C)C[C@H](N(C)C)[C@H]2O)[C@](C)(O)C[C@@H](C)C(=O)[C@H](C)[C@@H](O)[C@]1(C)O [ERYTHROMYCIN]	31.38	36.8	1.32	1.88
CC(C)n1c(/C=C/C(O)CC(O)CC(=O)O)c(-c2ccc(F)cc2)c2ccccc21 (centres undefined) [FLUVASTATIN]	82.11	49.3	5.37	195
C[C@H](C(=O)O)c1ccc2oc(-c3ccc(F)cc3)nc2c1 [FLUNOXAPROFEN]	960.78	2794	1464.8	14620.68
O=c1ccc2ccccc2o1 [COUMARIN]	40.38	2.03	31.8	37.5
CN1CCN(c2c(F)cc3c(=O)c(C(=O)O)cn(CCF)c3c2F)CC1 [FLEROXACIN]	618	432.41	133.54	152.4
CC(C)(C)NC(=O)[C@@H]1CN(Cc2cccnc2)CCN1C[C@@H](O)C[C@@H](Cc1ccccc1)C(=O)N[C@H]1c2ccccc2C[C@H]1O.O [INDINAVIR]	46.1	52.98	5.34	3.13
CC(=O)NCCOC(=O)C(Oc1cccc(C(F)(F)F)c1)c1ccc(Cl)cc1 (centres undefined) [HALOFENATE]	390.13	15037.59	3918.28	9183.98
CC1(C)O[C@@H]2C[C@H]3[C@@H]4C[C@H](F)C5=CC(=O)C=C[C@]5(C)[C@H]4[C@@H](O)C[C@]3(C)[C@]2(C(=O)CO)O1 [FLUNISOLIDE]	63.58	16.42	2.1	107.25
CCC1(C)CC(=O)NC1=O (centres undefined) [ETHOSUXIMIDE]	2166.68	6666.67	2792.79	285.71
Cc1c(C)c2c(c(C)c1O)CCC(C)(COc1ccc(CC3SC(=O)NC3=O)cc1)O2 (centres undefined) [TROGLITAZONE]	61.2	80.71	34.08	13.44
CC(C(=O)O)c1ccc(-c2ccccc2)c(F)c1 (centres undefined) [FLURBIPROFEN]	4718.5	2900.56	2364.5	1042.5
Cc1nc(=O)c(C#N)c(NCc2cccnc2)[nH]1 [PELRINONE]	84	152.38	39.2	20
O=C(O)C(Cl)c1ccc(C2CCCCC2)c(Cl)c1 (centres undefined) [FENCLORAC]	2454.09	2651.33	491.65	630.2
CCCCCNC(=O)c1coc([C@H]2[C@@H](Cc3ccccc3CCC(=O)O)[C@@H]3CC[C@H]2O3)n1 [IFETROBAN]	9.48	77.32	13.02	2.86
Cc1ncc2n1-c1ccc(Cl)cc1C(c1ccccc1F)=NC2 [MIDAZOLAM]	23.79	66.67	4.17	1.64
